In patent US8481028B2, “Compositions for preparing a coffee beverage comprising hydrolysed chlorogenic acid” (Nestec S.A., priority 2008, dated 2013):

Legend:
[1] = tested on: spray-dried preparation of Lactobacillus johnsonii (CNCM I-1225); test: Treatment of NESCAFE PROTECT with spray-dried preparation of L. johnsonii, HPLC
Protocol: (§1) To this solution, 10 mg of a spray-dried preparation of Lactobacillus johnsonii (CNCM I-1225) (3.3 E9 cfu/g) were added. The mixture was then incubated at 37° C. and samples were withdrawn at different reaction times. After centrifugation (3000 g, 5 min) and filtration (0.45 μm pore size syringe filters, Millipore SLHA 025 BS) the samples were analysed by HPLC.
(§2) Coffee samples were diluted to 1% w/w and analyzed by RP-HPLC on a CC 250/4 Nucleosil 100-5-C18 column (Macherey-Nagel). The eluent system was Millipore water, 0.1% TFA and CH3CN at a flow rate of 1 mL/min. The method allowed the simultaneous determination of caffeoyl quinic acids (CQA), feruloyl quinic acids (FQA), di-caffeoyl quinic acids (diCQA), feruloyl quinic acid-lactones, caffeic acid (CA) and ferulic acid (FA) (absorbance at 325 nm) using external standard calibration curves. Results were expressed relative to the reference at time 0 (t0) or to the reference at the same time without bacteria.

[2] = tested on: Lactobacillus johnsonii (CNCM I-1225) fresh cells; test: Treatment of NESCAFE PROTECT with L. johnsonii fresh cells, HPLC of chlorogenic and phenolic acids
Protocol: (§3) Cells of L. johnsonii (CNCM I-1225) were grown (7.0 E08 cfu/ml) and centrifuged (5000 g, 10 min), the pellets were resuspended in phosphate buffer (50 mM, pH 7.0) at a concentration of 0.61 g/ml. […] Samples were withdrawn at different reaction times, centrifuged (3000 g, 5 min) and filtered through 0.45 μm pore size syringe filters (Millipore SLHA 025 BS) and analysed by HPLC.
A reaction control was run in parallel under the same reaction conditions but without bacteria.
as §2

Chlorogenate esterase = test: Incubation of coffee extracts with chlorogenate esterase, HPLC; type: biochemical, Aspergillus japonicus
Protocol: as §2
Chlorogenate esterase (24 U/g), derived from Aspergillus japonicus (Kikkoman, Japan). Tannase from Aspergillus oryzae (Kikkoman, Japan) Preparation of Bacteria Cells
A solution of chlorogenate esterase (25 mg) in 200 μl phosphate buffer (pH 7.0) was added to 800 μl of a coffee solution (3%). The mixture was then incubated at 37° C. for 4 h, 16 h and 24 h. After reaction time, the enzymatic activity was stopped by heat treatment (3 min, 90° C.) and the mixture was filtered before analysis.

[3] = tested on: spray-dried preparation of Lactobacillus johnsonii (CNCM I-1225); test: Treatment of green coffee extract with spray-dried preparation of L. johnsonii, HPLC
Protocol: as §1, with “30 mg of a dried green coffee extract was dissolved in 1 ml phosphate buffer (50 mM, pH 7.0) or in 1 ml water. To” for “To”, “johnsonii” for “johnsonii (CNCM I-1225)”, “cfu/g) was” for “cfu/g) were”
as §2

[4] = tested on: Lactobacillus johnsonii (CNCM I-1225); test: Treatment of coffee extracts with bacteria cells (L. johnsonii), HPLC
Protocol: as §2
(§4) Tested strains were harvested (centrifugation at 5000 g for 10 min) after having well reached stationary phase, corresponding to 16 hours of incubation in culture medium at 37° C. in anaerobic atmosphere without agitation. For a first activation of the strains, frozen stock cultures were inoculated in fresh media and grown overnight. This pre-culture was used to inoculate the culture.
(§5) After culture of bacteria and centrifugation, the pellets were resuspended in phosphate buffer (pH 7.0) at a concentration of 0.61 g/ml. To 200 μl of this cells preparation, 800 μl of a coffee solution (3%) was added and the mixture was incubated at 37° C. for 4 h, 16 h and 24 h.

[5] = tested on: Lactobacillus johnsonii (CNCM I-1225) extract (lysed cells); test: Treatment of NESCAFE PROTECT with L. johnsonii extract (lysed cells), HPLC; type: biochemical
Protocol: as §3, with “g/ml. The cells were then lysed using the glass-beads method. 600 μl of cells preparation were put in screw-cap tubes and 600 μl of glass-beads were added at 0° C. The tubes were then put into a Mini-Beadbeater for 1 min of intense shaking, cooled in ice, and put another 1 min in the Mini-Beadbeater.” for “g/ml.”, “min),” for “min) and”
as §2

[6] = tested on: Bifidobacterium lactis BB12 (CNCM I-3446); test: Treatment of coffee extracts with bacteria cells (B. lactis), HPLC
Protocol: as §2, §4, §5

[7] = tested on: concentrated preparation of Lactobacillus johnsonii (CNCM I-1225); test: Treatment of NESCAFE with concentrated preparation of L. johnsonii, HPLC
Protocol: 400 mg of NESCAFE SPECIAL FILTRE® (a dried extract of roasted coffee beans) were dissolved in 1 ml of boiling water and the solution was cooled to 37° C. at room temperature. To 250 μl of this coffee solution, different amounts of concentrated preparation of Lactobacillus johnsonii (50 μl, 100 μl, 350 μl, 750 μl) were added and the volume was adjusted to 1 ml with water. The mixtures were than incubated at 37° C. for 2 h and 4 h. After centrifugation (3000 g, 5 min) and filtration the samples were analysed by HPLC.
as §2

[8] = NESCAFE PROTECT + Chlorogenate esterase, 4 h
[9] = NESCAFE PROTECT + Chlorogenate esterase, 16 h
[10] = NESCAFE PROTECT + Chlorogenate esterase, 24 h
[11] = green coffee extract + Chlorogenate esterase, 4 h
[12] = green coffee extract + Chlorogenate esterase, 16 h
[13] = green coffee extract + Chlorogenate esterase, 24 h
[14] = NESCAFE PROTECT + Lactobacillus johnsonii, 4 h
[15] = NESCAFE PROTECT + Lactobacillus johnsonii, 16 h
[16] = NESCAFE PROTECT + Lactobacillus johnsonii, 24 h
[17] = green coffee extract + Lactobacillus johnsonii, 4 h
[18] = green coffee extract + Lactobacillus johnsonii, 16 h
[19] = green coffee extract + Lactobacillus johnsonii, 24 h
[20] = NESCAFE PROTECT + Bifidobacterium lactis, 4 h
[21] = NESCAFE PROTECT + Bifidobacterium lactis, 16 h
[22] = NESCAFE PROTECT + Bifidobacterium lactis, 24 h
[23] = green coffee extract + Bifidobacterium lactis, 4 h
[24] = green coffee extract + Bifidobacterium lactis, 16 h
[25] = green coffee extract + Bifidobacterium lactis, 24 h

COc1cc(/C=C/C(=O)O)ccc1O [FA, ferulic acid]
% relative to untreated control at t = 0 ([1]; 2 h): 1109%
% relative to untreated control at t = 0 ([1]; 6 h): 2183%
% relative to untreated control at t = 0 ([1]; 24 h): 3686%
Concentration in % relative to untreated reference at t = 0 ([2]; 6 h, cell preparation 100 uL): 4594%
Concentration in % relative to untreated reference at t = 0 ([2]; 6 h, cell preparation 350 uL): 7234%
Concentration in % relative to untreated reference at t = 0 ([2]; 6 h, cell preparation 750 uL): 7776%
Concentration in % relative to untreated reference at t = 0 ([2]; 24 h, cell preparation 100 uL): 6691%
Concentration in % relative to untreated reference at t = 0 ([2]; 24 h, cell preparation 350 uL): 8861%
Concentration in % relative to untreated reference at t = 0 ([2]; 24 h, cell preparation 750 uL): 8845%
% relative to untreated control at t = 0 (Chlorogenate esterase; [8]): 2794%
% relative to untreated control at t = 0 (Chlorogenate esterase; [9]): 5140%
% relative to untreated control at t = 0 (Chlorogenate esterase; [10]): 5518%
% relative to untreated control at t = 0 (Chlorogenate esterase; [11]): 2620%
% relative to untreated control at t = 0 (Chlorogenate esterase; [12]): 5685%
% relative to untreated control at t = 0 (Chlorogenate esterase; [13]): 6293%
% relative to untreated control at t = 0 ([3]; 4 h): 961%
% relative to untreated control at t = 0 ([3]; 6 h): 1429%
% relative to untreated control at t = 0 ([3]; 16 h): 1963%
% relative to untreated control at t = 0 ([3]; 24 h): 2432%
% relative to untreated control at t = 0 [4, 14]: 4051%
% relative to untreated control at t = 0 [4, 15]: 5226%
% relative to untreated control at t = 0 [4, 16]: 5504%
% relative to untreated control at t = 0 [4, 17]: 4607%
% relative to untreated control at t = 0 [4, 18]: 7192%
% relative to untreated control at t = 0 [4, 19]: 7597%
Concentration in % relative to untreated reference at t = 0 ([5]; 2 h, cell preparation 100.0 uL): 5581%
Concentration in % relative to untreated reference at t = 0 ([5]; 2 h, cell preparation 350.0 uL): 7771%
Concentration in % relative to untreated reference at t = 0 ([5]; 6 h, cell preparation 100.0 uL): 6960%
Concentration in % relative to untreated reference at t = 0 ([5]; 6 h, cell preparation 350.0 uL): 9720%
% relative to untreated control at t = 0 [6, 20]: 3065%
% relative to untreated control at t = 0 [6, 21]: 4518%
% relative to untreated control at t = 0 [6, 22]: 5144%
% relative to untreated control at t = 0 [6, 23]: 5020%
% relative to untreated control at t = 0 [6, 24]: 6970%
% relative to untreated control at t = 0 [6, 25]: 7105%
% relative to untreated control at t = 0 ([7]; cell amount 50 μL/1 mL, 2 h): 1509%
% relative to untreated control at t = 0 ([7]; cell amount 50 μL/1 mL, 4 h): 786%
% relative to untreated control at t = 0 ([7]; cell amount 100 μL/1 mL, 2 h): 2468%
% relative to untreated control at t = 0 ([7]; cell amount 100 μL/1 mL, 4 h): 1266%
% relative to untreated control at t = 0 ([7]; cell amount 350 μL/1 mL, 2 h): 5327%
% relative to untreated control at t = 0 ([7]; cell amount 350 μL/1 mL, 4 h): 2408%
% relative to untreated control at t = 0 ([7]; cell amount 750 μL/1 mL, 2 h): 7586%
% relative to untreated control at t = 0 ([7]; cell amount 750 μL/1 mL, 4 h): 3281%

caffeoyl quinic acids [CQA]
% relative to untreated control at t = 0 ([1]; 2 h): 73%
% relative to untreated control at t = 0 ([1]; 6 h): 67%
% relative to untreated control at t = 0 ([1]; 24 h): 32%
Concentration in % relative to untreated reference at t = 0 ([2]; 6 h, cell preparation 100 uL): 39%
Concentration in % relative to untreated reference at t = 0 ([2]; 6 h, cell preparation 350 uL): 14%
Concentration in % relative to untreated reference at t = 0 ([2]; 6 h, cell preparation 750 uL): 3%
Concentration in % relative to untreated reference at t = 0 ([2]; 24 h, cell preparation 100 uL): 15%
Concentration in % relative to untreated reference at t = 0 ([2]; 24 h, cell preparation 350 uL): 3%
Concentration in % relative to untreated reference at t = 0 ([2]; 24 h, cell preparation 750 uL): 0%
% relative to untreated control at t = 0 (Chlorogenate esterase; [8]): 5%
% relative to untreated control at t = 0 (Chlorogenate esterase; [9]): 3%
% relative to untreated control at t = 0 (Chlorogenate esterase; [10]): 3%
% relative to untreated control at t = 0 (Chlorogenate esterase; [11]): 3%
% relative to untreated control at t = 0 (Chlorogenate esterase; [12]): 2%
% relative to untreated control at t = 0 (Chlorogenate esterase; [13]): 2%
% relative to untreated control at t = 0 ([3]; 4 h): 77%
% relative to untreated control at t = 0 ([3]; 6 h): 69%
% relative to untreated control at t = 0 ([3]; 16 h): 58%
% relative to untreated control at t = 0 ([3]; 24 h): 50%
% relative to untreated control at t = 0 [4, 14]: 33%
% relative to untreated control at t = 0 [4, 15]: 13%
% relative to untreated control at t = 0 [4, 16]: 13%
% relative to untreated control at t = 0 [4, 17]: 42%
% relative to untreated control at t = 0 [4, 18]: 15%
% relative to untreated control at t = 0 [4, 19]: 12%
Concentration in % relative to untreated reference at t = 0 ([5]; 2 h, cell preparation 100.0 uL): 32%
Concentration in % relative to untreated reference at t = 0 ([5]; 2 h, cell preparation 350.0 uL): 10%
Concentration in % relative to untreated reference at t = 0 ([5]; 6 h, cell preparation 100.0 uL): 14%
Concentration in % relative to untreated reference at t = 0 ([5]; 6 h, cell preparation 350.0 uL): 6%
% relative to untreated control at t = 0 [6, 20]: 97%
% relative to untreated control at t = 0 [6, 21]: 81%
% relative to untreated control at t = 0 [6, 22]: 80%
% relative to untreated control at t = 0 [6, 23]: 96%
% relative to untreated control at t = 0 [6, 24]: 79%
% relative to untreated control at t = 0 [6, 25]: 74%
% relative to untreated control at t = 0 ([7]; cell amount 50 μL/1 mL, 2 h): 92%
% relative to untreated control at t = 0 ([7]; cell amount 50 μL/1 mL, 4 h): 76%
% relative to untreated control at t = 0 ([7]; cell amount 100 μL/1 mL, 2 h): 80%
% relative to untreated control at t = 0 ([7]; cell amount 100 μL/1 mL, 4 h): 60%
% relative to untreated control at t = 0 ([7]; cell amount 350 μL/1 mL, 2 h): 46%
% relative to untreated control at t = 0 ([7]; cell amount 350 μL/1 mL, 4 h): 33%
% relative to untreated control at t = 0 ([7]; cell amount 750 μL/1 mL, 2 h): 25%
% relative to untreated control at t = 0 ([7]; cell amount 750 μL/1 mL, 4 h): 17%
